Experimental data: PubChem BioAssay (NCI)
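All cell lines were grown in 96-well plates and treated with compound for 48 hours. GI50: concentration for 50% inhibition of growth. Definition used: TGI = concentration required for complete inhibition of growth.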

Columns and labels:
Assay in all cases: inhibition of tumour cell growth, NCI panel, 48 h
PC-3 prostate = system: PC-3 prostate
CAKI-1 renal = system: CAKI-1 renal
U251 CNS = system: U251 CNS
SW-620 colon = system: SW-620 colon
UO-31 renal = system: UO-31 renal
SF-268 CNS = system: SF-268 CNS
OVCAR-8 ovarian = system: OVCAR-8 ovarian
RPMI-8226 leukemia = system: RPMI-8226 leukemia
786-0 renal = system: 786-0 renal
A498 renal = system: A498 renal
TK-10 renal = system: TK-10 renal
HS 578T breast = system: HS 578T breast
LOX IMVI melanoma = system: LOX IMVI melanoma
SR leukemia = system: SR leukemia
OVCAR-3 ovarian = system: OVCAR-3 ovarian
NCI-H23 lung = system: NCI-H23 lung
CCRF-CEM leukemia = system: CCRF-CEM leukemia
MALME-3M melanoma = system: MALME-3M melanoma
ACHN renal = system: ACHN renal
UACC-257 melanoma = system: UACC-257 melanoma
HCT-15 colon = system: HCT-15 colon
HT29 colon = system: HT29 colon
NCI-H522 lung = system: NCI-H522 lung
MCF7 breast = system: MCF7 breast
T-47D breast = system: T-47D breast
SNB-19 CNS = system: SNB-19 CNS
SF-539 CNS = system: SF-539 CNS
NCI/ADR-RES ovarian = system: NCI/ADR-RES ovarian
SK-OV-3 ovarian = system: SK-OV-3 ovarian
SK-MEL-28 melanoma = system: SK-MEL-28 melanoma
SK-MEL-2 melanoma = system: SK-MEL-2 melanoma
KM12 colon = system: KM12 colon
NCI-H226 lung = system: NCI-H226 lung
UACC-62 melanoma = system: UACC-62 melanoma
M14 melanoma = system: M14 melanoma
OVCAR-4 ovarian = system: OVCAR-4 ovarian
BT-549 breast = system: BT-549 breast
EKVX NSCLC = system: EKVX NSCLC
HOP-62 NSCLC = system: HOP-62 NSCLC
RXF 393 renal = system: RXF 393 renal
COLO 205 colon = system: COLO 205 colon
SF-295 CNS = system: SF-295 CNS
NCI-H460 lung = system: NCI-H460 lung
DU-145 prostate = system: DU-145 prostate
SNB-75 CNS = system: SNB-75 CNS
SN12C renal = system: SN12C renal
HL-60(TB) leukemia = system: HL-60(TB) leukemia
HCT-116 colon = system: HCT-116 colon
MDA-MB-231 breast = system: MDA-MB-231 breast
MDA-MB-435 = system: MDA-MB-435
HCC-2998 colon = system: HCC-2998 colon
MOLT-4 leukemia = system: MOLT-4 leukemia
IGROV1 ovarian = system: IGROV1 ovarian
HOP-92 NSCLC = system: HOP-92 NSCLC
SK-MEL-5 melanoma = system: SK-MEL-5 melanoma
A549 NSCLC = system: A549 NSCLC
OVCAR-5 ovarian = system: OVCAR-5 ovarian

SMILES: C[C@]12CC[C@@H]3c4ccc(O)cc4C[C@@H](CCCCCCCCCS(=O)CCCC(F)(F)C(F)(F)F)[C@H]3[C@@H]1CC[C@@H]2O (some centres not stated)
- GI50 (PC-3 prostate): > 100 µM
- TGI (PC-3 prostate): > 100 µM
- GI50 (CAKI-1 renal): > 100 µM
- TGI (CAKI-1 renal): > 100 µM
- GI50 (U251 CNS): > 100 µM
- TGI (U251 CNS): > 100 µM
- GI50 (SW-620 colon): > 100 µM
- TGI (SW-620 colon): > 100 µM
- GI50 (UO-31 renal): > 100 µM
- TGI (UO-31 renal): > 100 µM
- GI50 (SF-268 CNS): > 100 µM
- TGI (SF-268 CNS): > 100 µM
- GI50 (OVCAR-8 ovarian): > 100 µM
- TGI (OVCAR-8 ovarian): > 100 µM
- GI50 (RPMI-8226 leukemia): 2.35 µM
- TGI (RPMI-8226 leukemia): > 100 µM
- GI50 (786-0 renal): > 100 µM
- TGI (786-0 renal): > 100 µM
- GI50 (A498 renal): > 100 µM
- TGI (A498 renal): > 100 µM
- GI50 (TK-10 renal): > 51.8 µM
- TGI (TK-10 renal): > 100 µM
- GI50 (HS 578T breast): > 100 µM
- TGI (HS 578T breast): > 100 µM
- GI50 (LOX IMVI melanoma): > 100 µM
- TGI (LOX IMVI melanoma): > 100 µM
- GI50 (SR leukemia): > 100 µM
- TGI (SR leukemia): > 100 µM
- GI50 (OVCAR-3 ovarian): > 100 µM
- TGI (OVCAR-3 ovarian): > 100 µM
- GI50 (NCI-H23 lung): > 100 µM
- TGI (NCI-H23 lung): > 100 µM
- GI50 (CCRF-CEM leukemia): > 100 µM
- TGI (CCRF-CEM leukemia): > 100 µM
- GI50 (MALME-3M melanoma): > 100 µM
- TGI (MALME-3M melanoma): > 100 µM
- GI50 (ACHN renal): > 100 µM
- TGI (ACHN renal): > 100 µM
- GI50 (UACC-257 melanoma): > 100 µM
- TGI (UACC-257 melanoma): > 100 µM
- GI50 (HCT-15 colon): > 100 µM
- TGI (HCT-15 colon): > 100 µM
- GI50 (HT29 colon): > 100 µM
- TGI (HT29 colon): > 100 µM
- GI50 (NCI-H522 lung): > 26.2 µM
- TGI (NCI-H522 lung): > 100 µM
- TGI (MCF7 breast): > 100 µM
- GI50 (T-47D breast): 0.71 µM
- TGI (T-47D breast): > 100 µM
- GI50 (SNB-19 CNS): > 100 µM
- TGI (SNB-19 CNS): > 100 µM
- GI50 (SF-539 CNS): > 100 µM
- TGI (SF-539 CNS): > 100 µM
- GI50 (NCI/ADR-RES ovarian): > 100 µM
- TGI (NCI/ADR-RES ovarian): > 100 µM
- GI50 (SK-OV-3 ovarian): > 100 µM
- TGI (SK-OV-3 ovarian): > 100 µM
- GI50 (SK-MEL-28 melanoma): > 100 µM
- TGI (SK-MEL-28 melanoma): > 100 µM
- GI50 (SK-MEL-2 melanoma): > 100 µM
- TGI (SK-MEL-2 melanoma): > 100 µM
- GI50 (KM12 colon): > 100 µM
- TGI (KM12 colon): > 100 µM
- GI50 (NCI-H226 lung): > 100 µM
- TGI (NCI-H226 lung): > 100 µM
- GI50 (UACC-62 melanoma): > 100 µM
- TGI (UACC-62 melanoma): > 100 µM
- GI50 (M14 melanoma): > 100 µM
- TGI (M14 melanoma): > 100 µM
- GI50 (OVCAR-4 ovarian): > 100 µM
- TGI (OVCAR-4 ovarian): > 100 µM
- GI50 (BT-549 breast): > 49.9 µM
- TGI (BT-549 breast): > 100 µM
- GI50 (EKVX NSCLC): > 100 µM
- TGI (EKVX NSCLC): > 100 µM
- GI50 (HOP-62 NSCLC): > 67.4 µM
- TGI (HOP-62 NSCLC): > 100 µM
- GI50 (RXF 393 renal): > 78.1 µM
- TGI (RXF 393 renal): > 100 µM
- GI50 (COLO 205 colon): > 100 µM
- TGI (COLO 205 colon): > 100 µM
- GI50 (SF-295 CNS): > 100 µM
- TGI (SF-295 CNS): > 100 µM
- GI50 (NCI-H460 lung): > 100 µM
- TGI (NCI-H460 lung): > 100 µM
- GI50 (DU-145 prostate): > 100 µM
- TGI (DU-145 prostate): > 100 µM
- GI50 (SNB-75 CNS): > 100 µM
- TGI (SNB-75 CNS): > 100 µM
- GI50 (SN12C renal): > 100 µM
- TGI (SN12C renal): > 100 µM
- GI50 (HL-60(TB) leukemia): 6.53 µM
- TGI (HL-60(TB) leukemia): > 100 µM
- TGI (HCT-116 colon): > 100 µM
- GI50 (MDA-MB-231 breast): > 100 µM
- TGI (MDA-MB-231 breast): > 100 µM
- GI50 (MDA-MB-435): > 100 µM
- TGI (MDA-MB-435): > 100 µM
- GI50 (HCC-2998 colon): > 100 µM
- TGI (HCC-2998 colon): > 100 µM
- GI50 (MOLT-4 leukemia): > 100 µM
- TGI (MOLT-4 leukemia): > 100 µM
- GI50 (IGROV1 ovarian): > 100 µM
- TGI (IGROV1 ovarian): > 100 µM
- GI50 (HOP-92 NSCLC): > 100 µM
- TGI (HOP-92 NSCLC): > 100 µM
- GI50 (SK-MEL-5 melanoma): > 100 µM
- TGI (SK-MEL-5 melanoma): > 100 µM
- GI50 (A549 NSCLC): > 69.9 µM
- TGI (A549 NSCLC): > 100 µM
- GI50 (OVCAR-5 ovarian): > 100 µM
- TGI (OVCAR-5 ovarian): > 100 µM
